The values below come from PubChem BioAssay (NCI).

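The compound was tested at five concentrations on cells cultured in 96-well plates, with a 48-hour exposure period. GI50 is the concentration that inhibits growth by half. TGI: total growth inhibition.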

Among the test systems are PC-3 prostate; CCRF-CEM leukemia; ACHN renal; HCC-2998 colon; NCI-H226 lung; NCI-H522 lung; OVCAR-3 ovarian; SK-MEL-5 melanoma; SNB-19 CNS; EKVX NSCLC.
Common to all, as to assay: growth of human tumour cells (NCI), 48 h

Consider `CC[CH2][Sn]([CH2]CC)([O]C(=O)Cc1ccc(F)cc1)[O][Sn]([CH2]CC)([CH2]CC)[O]C(=O)Cc1ccc(F)cc1`, for which the GI50 in the experiment with PC-3 prostate was 1000 nM; with ACHN renal, 209 nM; in the experiment on HCC-2998 colon, 439 nM; with NCI-H226 lung, 243 nM; with OVCAR-3 ovarian, 431 nM; with SK-MEL-5 melanoma, 472 nM. In addition, the GI50 is 443 nM with SNB-19 CNS and 569 nM in the experiment on EKVX NSCLC. Further, the TGI in the experiment with PC-3 prostate amounted to 2160 nM; in the experiment on CCRF-CEM leukemia, 1120 nM; with ACHN renal, 552 nM; in the experiment on HCC-2998 colon, 1700 nM; in the experiment with NCI-H226 lung it was 813 nM; in the experiment on NCI-H522 lung it was 32.2 nM. In addition, the TGI in the experiment with OVCAR-3 ovarian worked out at 1270 nM; in the experiment with SK-MEL-5 melanoma, 1470 nM; in the experiment with SNB-19 CNS it was 1350 nM; in the experiment on EKVX NSCLC, 1990 nM.

Consider `N#CSc1ccc(S(N)(=O)=O)cc1`, for which the TGI in the experiment with PC-3 prostate is more than 100000 nM; in the experiment on CCRF-CEM leukemia, 88700 nM; with ACHN renal, more than 100000 nM; with HCC-2998 colon, more than 100000 nM; in the experiment with NCI-H226 lung, more than 100000 nM; with NCI-H522 lung, 26500 nM. The TGI with OVCAR-3 ovarian, in the experiment on SK-MEL-5 melanoma, in the experiment on SNB-19 CNS and with EKVX NSCLC was more than 100000 nM throughout.

Take `COc1cc(C)c(NC(=O)CN(C)C)cc1Nc1nc(Nc2cccc(F)c2C(N)=O)c2cc[nH]c2n1`: the GI50 is 2210 nM in the experiment with PC-3 prostate; 403 nM with CCRF-CEM leukemia; 3810 nM in the experiment on ACHN renal; 621 nM in the experiment with HCC-2998 colon; 2600 nM with NCI-H226 lung; 623 nM in the experiment on NCI-H522 lung. Also, the GI50 is 682 nM in the experiment on OVCAR-3 ovarian, 690 nM in the experiment on SK-MEL-5 melanoma, 4020 nM with SNB-19 CNS and 937 nM in the experiment on EKVX NSCLC. Also, the TGI in the experiment with PC-3 prostate is 7560 nM; in the experiment with CCRF-CEM leukemia it was 4880 nM; with ACHN renal, 7350 nM; with HCC-2998 colon, 5090 nM; with NCI-H226 lung, 7240 nM; with NCI-H522 lung, 3690 nM. The TGI with OVCAR-3 ovarian was 1860 nM; with SK-MEL-5 melanoma, 4360 nM; in the experiment with SNB-19 CNS, 16000 nM; in the experiment on EKVX NSCLC, 12500 nM.
